Experimental data reported in patent US9687572B2, “PSMA-targeted dendrimers” (MOLECULAR INSIGHT PHARMACEUTICALS, INC., priority 2010, dated 2017).

Biological target: T1, PSMA (Homo sapiens, UniProt Q04609)
T1 construct: host or cells: LNCaP human prostate cancer cells
Assay: Competitive binding assay against [123I]-MIP-1072 on LNCaP cells
Details: FIG. 1
Protocol: The newly prepared analogs of the general structure 5 were screened in a human prostate cancer cell binding assay at a concentration of 3 nM using PSMA positive (+), LnCap cells.
Human prostate cancer cell line, LNCaP (PSMA positive) were obtained from the American Type Culture Collection (Rockville, Md.). LNCaP cells were maintained in RPMI-1640 medium (Invitrogen, Carlsbad, Calif.) supplemented with 10% fetal bovine serum (Hyclone, Logan, Utah) in a humidified incubator at 37° C./5% CO2. Cells were removed from flasks for passage or for transfer to 12-well assay plates by incubating them with 0.25% trypsin/EDTA (Invitrogen, Carlsbad, Calif.).
In a typical competitive binding assay, LNCaP cells were plated in 12-well plates at approximately 4×10^5 cells/well and incubated for 48 hours in a humidified incubator at 37° C./5% carbon dioxide prior to addition of PSMA inhibitors. The exemplary EDTA-PSMA tetramer MIP-1444 was diluted in serum-free cell culture medium containing 0.5% bovine serum albumin (BSA). Diluted MIP-1444 was added to the cells in the presence of 3 nM [^123I]-MIP-1072 for 1 hour at room temperature. Cells were removed from the plates by gently pipetting and transferred to 1.5 mL Eppendorff tubes. Samples were microcentrifuged for 30 seconds at 15K×g. […] Cell binding of [^123I]-MIP-1072 was determined by counting the cell pellet in a Wallac 1282 automated gamma counter. […]

T1 sequence (Q04609 whole entry): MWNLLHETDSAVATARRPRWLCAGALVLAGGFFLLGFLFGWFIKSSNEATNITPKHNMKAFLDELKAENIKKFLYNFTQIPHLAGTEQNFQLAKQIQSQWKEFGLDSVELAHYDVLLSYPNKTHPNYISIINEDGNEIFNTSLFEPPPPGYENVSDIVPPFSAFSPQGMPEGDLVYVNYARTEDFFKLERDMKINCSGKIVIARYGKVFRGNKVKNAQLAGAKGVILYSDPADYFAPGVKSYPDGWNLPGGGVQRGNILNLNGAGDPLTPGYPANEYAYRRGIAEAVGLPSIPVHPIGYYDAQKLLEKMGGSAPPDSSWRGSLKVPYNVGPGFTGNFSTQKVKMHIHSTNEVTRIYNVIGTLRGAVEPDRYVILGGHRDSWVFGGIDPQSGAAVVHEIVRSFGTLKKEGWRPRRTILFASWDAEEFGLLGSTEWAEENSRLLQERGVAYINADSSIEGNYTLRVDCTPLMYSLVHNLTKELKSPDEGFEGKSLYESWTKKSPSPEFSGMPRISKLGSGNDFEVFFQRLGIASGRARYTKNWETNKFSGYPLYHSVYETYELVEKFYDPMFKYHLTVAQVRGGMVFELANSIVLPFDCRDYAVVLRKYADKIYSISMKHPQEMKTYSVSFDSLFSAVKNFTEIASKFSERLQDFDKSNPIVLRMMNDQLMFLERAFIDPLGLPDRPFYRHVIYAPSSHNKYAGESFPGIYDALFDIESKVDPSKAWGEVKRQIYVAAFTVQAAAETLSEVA

- IC50 value fold greater than the IC50 for the tetramer MIP-1444 (3 nM [123I]-MIP-1072, 1 hour at room temperature): 36 fold
- affinity for PSMA (in words) (competitive binding curves): low affinity
Compound: NCCCC[C@H](NC(=O)N[C@@H](CCC(=O)O)C(=O)O)C(=O)O [MIP-1033]
